The values below come from patent US11932658B2 (BRISTOL-MYERS SQUIBB COMPANY, priority 2016, dated 2024).

Each structure is given as a SMILES string.

The IC50 is the concentration at which inhibition is half-maximal.

In this assay the target is T1, PAR4 (Homo sapiens, UniProt Q96RI0).
T1 construct: expressed in transfected cells; host or cells: HEK293 PAR4 Clone 1.2A (BMS Arctic ID 383940)
T1 sequence (Q96RI0 18-385): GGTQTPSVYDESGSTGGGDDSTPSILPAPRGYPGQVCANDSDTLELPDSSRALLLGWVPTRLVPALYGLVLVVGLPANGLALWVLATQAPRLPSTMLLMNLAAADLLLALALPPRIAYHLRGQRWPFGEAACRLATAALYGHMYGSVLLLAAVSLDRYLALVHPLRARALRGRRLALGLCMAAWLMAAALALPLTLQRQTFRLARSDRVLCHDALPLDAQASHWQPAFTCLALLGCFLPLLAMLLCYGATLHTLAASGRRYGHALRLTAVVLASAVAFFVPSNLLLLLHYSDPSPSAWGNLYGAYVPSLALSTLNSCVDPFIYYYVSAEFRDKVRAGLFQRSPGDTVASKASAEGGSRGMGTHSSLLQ
Put plainly: PAR4 FLIPR assay (antagonism of agonist peptide-induced calcium mobilization). Format: cell-based. The text has this: The FLIPR assay is an exemplary in vitro assay for measuring the activity of the PAR4 antagonists of the present invention. In this assay, intracellular calcium mobilization is induced in PAR4 expressing cells by a PAR4 agonist and calcium mobilization is monitored.
HEK293 cells stably expressing PAR4 were generated by a standard method of transfection of human PAR4 (F2R23) cDNA expression vector and selected based on PAR4 protein expression or mRNA expression. […] These cells also express endogenous PAR1 and can elicit calcium signal upon stimulation with PAR1 agonist peptide. Therefore, the same cells were also used to determine selectivity against PAR1 and agonist activity for both receptors. Cells from HEK293 PAR4 Clone 1.2A (BMS Arctic ID 383940) were propagated and used for calcium mobilization studies.
FLIPR-based calcium mobilization assay in HEK293 cells was used to measure PAR4 antagonism, agonism, and selectivity against PAR1. The activity of the PAR4 antagonists of the present invention were tested in PAR4 expressing cells by monitoring H-Ala-Phe(4-F)-Pro-Gly-Trp-Leu-Val-Lys-Asn-Gy-NH2-induced intracellular calcium mobilization. Counter screens for agonist activity and PAR1 antagonist activity were also performed. Briefly, PAR1/PAR4-expressing HEK293 cells were grown in DMEM (Life Technology, Grand Island, NY) containing 10% heat-inactivated FBS, 1% Penicillin-Streptomycin, 10 μg/mL blasticidin, and 100 μg/mL Zeocin at 37° C. with 5% CO2. Cells were plated overnight prior to the experiment in a black 384-well Purecoat Amine clear bottom plate (Becton Dickinson Biosciences, San Jose, CA) at 10,000 cells/well in 30 μL growth medium and incubated in a humidified chamber at 37° C. with 5% CO2 overnight. Prior to compound addition, the cell medium was replaced with 40 μL of 1× calcium and magnesium-containing Hank's Balanced Saline Solution (HBSS) (with 20 mM HEPES) and 1:1000 diluted fluorescent calcium indicator (Codex Biosolutions, Gaithersburg, MD). After a 30 minute incubation period at 37° C. and a further 30 minute incubation and equilibration period at room temperature, 20 μL test compound (diluted in 1×HBSS buffer) was added at various concentrations at 0.17% dimethyl sulfoxide (DMSO) final concentration. Changes in fluorescence intensity were measured using a Functional Drug Screening System (FDSS, Hamamatsu, Japan) to determine agonist activities. The cells were then incubated for 30 minutes at room temperature followed by addition of 20 μL of agonist peptide for antagonist activity measurement. […] Compound potency was derived from 11-point concentration-response curves.
A general note: Calcium flux is commonly read through the fluorescence of an indicator in the cells.
`COc1cnc2c(-c3nc4cc(F)c5c(c4s3)C[C@H](CNC(=O)C(F)(F)F)O5)cc(C)cc2n1` [Example 222, (R)-2,2,2-trifluoro-N-((5-fluoro-2-(2-methoxy-7-methylquinoxalin-5-yl)-7,8-dihydrobenzofuro[5,4-d]thiazol-7-yl)methyl)acetamide]: the IC50 was over 500 nM.

For `COc1cnc2c(-c3nc4c(C)cc5c(c4s3)OC[C@H](COC(=O)Nc3ccnc(C)c3)O5)cc(C#N)cc2n1` [Example 92, (R)-(2-(7-cyano-2-methoxyquinoxalin-5-yl)-4-methyl-7,8-dihydro-[1,4]dioxino[2′,3′:3,4]benzo[1,2-d]thiazol-7-yl)methyl (2-methylpyridin-4-yl)carbamate], the IC50 worked out at 1.4 nM.

Regarding `COc1cnc2c(-c3nc4cc(F)c5c(c4s3)CC(C)(CO)O5)cc(C)cc2n1` (stereo not drawn) [Example 167, (5-fluoro-2-(2-methoxy-7-methylquinoxalin-5-yl)-7-methyl-7,8-dihydrobenzofuro[5,4-d]thiazol-7-yl)methanol], the IC50 stood at 3.1 nM.

With `COc1cnc2c(-c3nc4ccc5c(c4s3)OC[C@H](COC(=O)Nc3ccc(C#N)nc3)O5)cc(C)cc2n1` [Example 105, (R)-(2-(2-methoxy-7-methylquinoxalin-5-yl)-7,8-dihydro-[1,4]dioxino[2′,3′:3,4]benzo[1,2-d]thiazol-7-yl)methyl (6-cyanopyridin-3-yl)carbamate], the IC50 was 1.6 nM.

With `COc1cnc2c(-c3nc4c(C)cc5c(c4s3)OCC(COC(=O)Nc3ccc(Oc4ccccc4)nc3)O5)cc(C)cc2n1` (stereo not drawn) [Example 121, (2-(2-methoxy-7-methylquinoxalin-5-yl)-4-methyl-7,8-dihydro-[1,4]dioxino [2′,3′:3,4]benzo[1,2-d]thiazol-7-yl)methyl (6-phenoxypyridin-3-yl)carbamate], the IC50 was determined as 8.2 nM.

Take `COc1cnc2c(-c3nc4c(Cl)cc5c(c4s3)OC[C@H](COC(=O)Nc3cnc(Cl)nc3)O5)cc(C)cc2n1` [Example 58, (R)-(4-chloro-2-(2-methoxy-7-methylquinoxalin-5-yl)-7,8-dihydro-[1,4]dioxino[2′,3′:3,4]benzo[1,2-d]thiazol-7-yl)methyl (2-chloropyrimidin-5-yl)carbamate]: the IC50 was 8.8 nM.

`COc1cnc2c(-c3nc4cc(F)c5c(c4s3)C[C@H](COC(=O)Nc3cnc(CCO)nc3)O5)cc(C)cc2n1` [Example 155, (R)-(5-fluoro-2-(2-methoxy-7-methylquinoxalin-5-yl)-7,8-dihydrobenzofuro[5,4-d]thiazo 1-7-yl)methyl (2-(2-hydroxyethyl)pyrimidin-5-yl)carbamate]: the IC50 was 13 nM.

With `COc1cnc2c(-c3nc4c(C)cc5c(c4s3)OC[C@H](COC(=O)Nc3cncc(F)c3)O5)cc(C)cc2n1` [Example 42, (R)-(2-(2-methoxy-7-methylquinoxalin-5-yl)-4-methyl-7,8-dihydro-[1,4]dioxino[2′,3′:3,4]benzo[1,2-d]thiazol-7-yl)methyl (5-fluoropyridin-3-yl)carbamate], the IC50 came to 50 nM.

With `COc1cnc2c(-c3nc4cc(F)c5c(c4s3)C[C@H](COC(=O)Nc3cccc(C#N)c3)O5)cc(C)cc2n1` [Example 162, (R)-(5-fluoro-2-(2-methoxy-7-methylquinoxalin-5-yl)-7,8-dihydrobenzofuro[5,4-d]thiazol-7-yl)methyl (3-cyanophenyl)carbamate], the IC50 is 0.7 nM.

In the case of `COc1cnc2c(-c3cc4c5c(cc(Cl)c4o3)O[C@@H](COC(=O)Nc3ccc(C)nc3)CO5)cc(C)cc2n1` [Example 7, (R)-(6-chloro-8-(2-methoxy-7-methylquinoxalin-5-yl)-2,3-dihydro-[1,4]dioxino[2,3-e]benzofuran-3-yl)methyl (6-methylpyridin-3-yl)carbamate], the IC50 was found to be 1 nM.

For `COc1cnc2c(-c3nc4cc(F)c5c(c4s3)[C@H](C)[C@@H](CNC(=O)OCC(C)C)O5)cc(C)cc2n1` [Example 256, Isobutyl (((7S,8S)-5-fluoro-2-(2-methoxy-7-methylquinoxalin-5-yl)-8-methyl-7,8-dihydrobenzofuro[5,4-d]thiazol-7-yl)methyl)carbamate], the IC50 is 0.7 nM.

On to `COC(=O)c1cncc(NC(=O)OCC2COc3c(cc(C)c4nc(-c5cc(C)cc6nc(OC)cnc56)sc34)O2)c1` (stereo not drawn) [Example 138, methyl 5-((((2-(2-methoxy-7-methylquinoxalin-5-yl)-4-methyl-7,8-dihydro-[1,4]dioxino[2′,3′:3,4]benzo[1,2-d]thiazol-7-yl)methoxy)carbonyl)amino)nicotinate], for which the IC50 came out at 3.4 nM.

As to `COc1cnc2c(-c3nc4c(C(O)C(C)(C)C)cc5c(c4s3)OCCO5)cc(C)cc2n1` (stereo not drawn) [Example 262, 1-(2-(2-methoxy-7-methylquinoxalin-5-yl)-7,8-dihydro-[1,4]dioxino[2′,3′:3,4]benzo[1,2-d]thiazol-4-yl)-2,2-dimethylpropan-1-ol], the IC50 turned out to be 2.3 nM.

Regarding `COc1cnc2c(-c3nc4ccc5c(c4s3)OC[C@H](COC(=O)Nc3cnc(C)nc3)O5)cc(F)cc2c1` [Example 281, (R)-(2-(6-fluoro-3-methoxyquinolin-8-yl)-7,8-dihydro-[1,4]dioxino[2′,3′:3,4]benzo[1,2-d]thiazol-7-yl)methyl (2-methylpyrimidin-5-yl)carbamate], the IC50 is 9 nM.

Take `COc1cnc2c(-c3nc4c(Cl)cc5c(c4s3)OC[C@H](COC(=O)Nc3cncc(F)c3)O5)cc(C)cc2n1` [Example 28, (R)-(4-chloro-2-(2-methoxy-7-methylquinoxalin-5-yl)-7,8-dihydro-[1,4]dioxino[2′,3′:3,4]benzo[1,2-d]thiazol-7-yl)methyl (5-fluoropyridin-3-yl)carbamate]: the IC50 worked out at 480 nM.

With `COc1cnc2c(-c3nc4cc(F)c5c(c4s3)C[C@H](COC(=O)Nc3cnc(C)nc3)O5)cc(C)cc2c1` [Example 269, (R)-(5-fluoro-2-(3-methoxy-6-methylquinolin-8-yl)-7,8-dihydrobenzofuro[5,4-d]thiazol-7-yl)methyl (2-methylpyrimidin-5-yl)carbamate], the half-maximal inhibitory concentration (IC50) was found to be 2.7 nM.

As for `COc1cnc2c(-c3nc4c(Cl)cc5c(c4s3)OC[C@H](COC(=O)Nc3ccccc3)O5)cc(C)cc2n1` [Example 26, (R)-(4-chloro-2-(2-methoxy-7-methylquinoxalin-5-yl)-7,8-dihydro-[1,4]dioxino[2′,3′:3,4]benzo[1,2-d]thiazol-7-yl)methyl phenylcarbamate], the IC50 was 10 nM.

Take `COc1cnc2c(-c3nc4c(C)cc5c(c4s3)OC[C@H](COC(=O)Nc3ccc(C)nc3)O5)cc(C)cc2n1` [Example 56, (R)-(2-(2-methoxy-7-methylquinoxalin-5-yl)-4-methyl-7,8-dihydro-[1,4]dioxino[2′,3′:3,4]benzo[1,2-d]thiazol-7-yl)methyl (6-methylpyridin-3-yl)carbamate]: the IC50 amounted to 1 nM.

As for `COc1cnc2c(-c3nc4ccc5c(c4s3)C[C@@H](CO)O5)cc(C)cc2n1` [Example 149, (S)-(2-(2-methoxy-7-methylquinoxalin-5-yl)-7,8-dihydrobenzofuro[5,4-d]thiazol-7-yl)me thanol], the IC50 stood at 1.5 nM.

For the compound `COc1ccc(NC(=O)OCC2COc3c(cc(C)c4nc(-c5cc(CO)cc6nc(OC)cnc56)sc34)O2)cn1` (stereo not drawn) [Example 87, (2-(7-(hydroxymethyl)-2-methoxyquinoxalin-5-yl)-4-methyl-7,8-dihydro-[1,4]dioxino[2′,3′:3,4]benzo[1,2-d]thiazol-7-yl)methyl (6-methoxypyridin-3-yl)carbamate], the IC50 worked out at 2 nM.

In the case of `Cc1ncc(NC(=O)OC[C@H]2COc3c(ccc4nc(-c5cc(Cl)cc6cc(OC(F)F)cnc56)sc34)O2)cn1` [Example 272, (R)-(2-(6-chloro-3-(difluoromethoxy)quinolin-8-yl)-7,8-dihydro-[1,4]dioxino[2′,3′:3,4]benzo[1,2-d]thiazol-7-yl)methyl (2-methylpyrimidin-5-yl)carbamate], the IC50 is 3.3 nM.
